# Laboratory results published in article PMC5011342, “A high throughput drug screening assay to identify compounds that promote oligodendrocyte differentiation using acutely dissociated and purified oligodendrocyte precursor cells” (BMC Research Notes, 2016).
# Counter-ions that a name gives are not always drawn. Like-named read-outs stand apart in the source and are kept apart here.
# Tests used:
# [1] = test system: acutely dissociated and purified rat OPCs; assay: Acute OL differentiation assay (MBP expression/cell, immunofluorescent image quantification); type: cell-based; details: sheet "All OLga data"; for activation at 0.4 µM: read-out: 0.4 uM (% Quet)
# Outline: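 Oligodendrocyte precursor cells were enriched from P6-P7 Sprague–Dawley rat brains by immunopanning (RAN-2 and GalC depletion, O4 selection), plated at 5000 cells/well in serum-free, mitogen-free differentiation media on PDL/laminin 96-well view plates, centrifuged at 200×g, and pre-incubated 1–2 h before test compounds were added in quadruplicate. On DIV4, cells were fixed, stained for MBP and DAPI, imaged automatically, and MBP expression per cell was quantified.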
# expanded OPCs = assay: cells; details: for viability at 0.1 µM / viability at 1 µM / viability at 10 µM: Rattus norvegicus, 72 h
# Outline: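 Expanded OPCs seeded at 10,000 cells/well in differentiation media, then exposed to NCC library compounds at 10, 1 and 0.1 µM (quadruplicate, 0.1% DMSO) for three days. Viability read as alamarBlue fluorescence (560/590 nm) after 4 h at 37 °C; tunicamycin 5 ng/ml served as toxicity control.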
# [2] = alamarBlue viability of expanded OPCs, compound at 0.1 µM, relative to DMSO control
# [3] = alamarBlue viability of expanded OPCs, compound at 1 µM, relative to DMSO control
# [4] = alamarBlue viability of expanded OPCs, compound at 10 µM, relative to DMSO control
# [5] = read-out: 0.1 µM (% DMSO), alamarBlue viability, NCC library compound at 0.1 µM, sheet "All Tox data"
# [6] = read-out: 1 µM (% DMSO), alamarBlue viability, NCC library compound at 1 µM, sheet "All Tox data"
# [7] = read-out: 10 µM (% DMSO), alamarBlue viability, NCC library compound at 10 µM, sheet "All Tox data"
# [8] = Rattus norvegicus, 2 uM test compound, relative to quetiapine, read-out: OL differentiation, 2 uM (% Quet)
# [9] = Rattus norvegicus, 10 uM test compound, relative to quetiapine, read-out: OL differentiation, 10 uM (% Quet)
# [10] = read-out: 0.1 µM (% DMSO), alamarBlue viability of expanded OPCs, compound at 0.1 µM, sheet All Tox data
# [11] = read-out: 1 µM (% DMSO), alamarBlue viability of expanded OPCs, compound at 1 µM, sheet All Tox data
# [12] = read-out: 10 µM (% DMSO), alamarBlue viability of expanded OPCs, compound at 10 µM, sheet All Tox data
# [13] = Rattus norvegicus, test compound at 2 uM, NCC library screen, relative to quetiapine, read-out: 2 uM (% Quet)
# [14] = Rattus norvegicus, test compound at 10 uM, NCC library screen, relative to quetiapine, read-out: 10 uM (% Quet)
SMILES,"activation at 2 µM [1, 8] [%]","activation at 10 µM [1, 9] [%]",viability at 0.1 µM (expanded OPCs; [10]) [%],viability at 1 µM (expanded OPCs; [11]) [%],viability at 10 µM (expanded OPCs; [12]) [%],other results
CC(N)C12CC3CC(CC(C3)C1)C2 (centres unmarked) [Rimantadine],,,,,,"activation at 0.4 µM ([1]; Rattus norvegicus, test compound at 0.4 uM, MBP expression relative to quetiapine, NCC library screen): -17.2%; activation at 2 µM ([1]; Rattus norvegicus, test compound at 2 uM, MBP expression relative to quetiapine, NCC library screen, read-out: 2 uM (% Quet)): -11.2%; 0.1 µM (% DMSO) (expanded OPCs; [2]): 89.9 % DMSO; 1 µM (% DMSO) (expanded OPCs; [3]): 83.2 % DMSO; 10 µM (% DMSO) (expanded OPCs; [4]): 32.9 % DMSO"
C[C@@H]1CN(CCCn2c3ccccc3c3ccccc32)C[C@H](C)N1 [Rimcazole],,,,,,"activation at 0.08 µM ([1]; Rattus norvegicus, test compound at 0.08 uM, NCC library screen, relative to quetiapine, read-out: 0.08 uM (% Quet)): -5.2%; activation at 0.4 µM ([1]; Rattus norvegicus, test compound at 0.4 uM, NCC library screen, relative to quetiapine): 23.1%; viability at 0.1 µM (expanded OPCs; [5]): 61.7%; viability at 1 µM (expanded OPCs; [6]): 33.6%; viability at 10 µM (expanded OPCs; [7]): 9.5%"
Cc1nc2n(c(=O)c1CCN1CCC(c3noc4cc(F)ccc34)CC1)CCCC2 [Risperidone],2.4,31.6,92.3,99.8,90.2,
CC(C)c1nc(CN(C)C(=O)N[C@H](C(=O)N[C@@H](Cc2ccccc2)C[C@H](O)[C@H](Cc2ccccc2)NC(=O)OCc2cncs2)C(C)C)cs1 [Ritonavir],-21.7,-35.8,96.5,97.4,69.8,
CN(C)CCc1c[nH]c2ccc(Cn3cncn3)cc12 [Rizatriptan],-2.6,-0.44,110,94.8,86.3,
CS(=O)(=O)c1ccc(C2=C(c3ccccc3)C(=O)OC2)cc1 [Rofecoxib],-10.8,-9,91.5,97.2,115,
COc1ccc(C2CNC(=O)C2)cc1OC1CCCC1 (centres unmarked) [Rolipram],11.2,-14.2,97.1,92.8,86.8,
CN(C)[C@@H]1C(O)=C(C(=O)NCN2CCCC2)C(=O)[C@@]2(O)C(O)=C3C(=O)c4c(O)cccc4[C@@](C)(O)[C@H]3C[C@@H]12 [Rolitetracycline],,,,,,"activation at 2 µM [1, 13]: 1.5%; activation at 10 µM [1, 14]: -11.1%; viability at 0.1 µM (expanded OPCs; [5]): 94.4%; viability at 1 µM (expanded OPCs; [6]): 92.4%; viability at 10 µM (expanded OPCs; [7]): 69.8%"
CN(CCOc1ccc(CC2SC(=O)NC2=O)cc1)c1ccccn1 (centres unmarked) [Rosiglitazone maleate],7.9,,95.3,103,158,
CC(=O)OCC(=O)NCCCOc1cccc(CN2CCCCC2)c1 [Roxatidine acetate],-1.7,8.2,,,,viability at 0.1 µM (expanded OPCs; [5]): 101%; viability at 1 µM (expanded OPCs; [6]): 96%; viability at 10 µM (expanded OPCs; [7]): 85.7%
CN1CCN(c2c(F)cc3c(=O)c(C(=O)O)cn4c3c2SCC4)CC1 [Rufloxacin],-26.4,7,98.3,89.1,103,
C[C@@H]1O[C@@H](OC[C@H]2O[C@@H](Oc3c(-c4ccc(O)c(O)c4)oc4cc(O)cc(O)c4c3=O)[C@H](O)[C@@H](O)[C@@H]2O)[C@H](O)[C@H](O)[C@H]1O [Rutin],22.9,21.3,106,108,106,
CN1CC[C@]2(c3cccc(O)c3)Cc3nc4ccccc4cc3C[C@H]2C1 [SB 205607],,,,,,"0.4 uM (% Quet) ([1]; test compound at 0.4 uM, NCC library screen, relative to quetiapine): 15.0 % Quet; 2 uM (% Quet) ([1]; test compound at 2 uM, NCC library screen, relative to quetiapine): 5.9 % Quet; 0.1 µM (% DMSO) (expanded OPCs; alamarBlue viability, NCC library compound at 0.1 µM, sheet ""All Tox data""): 84.0 % DMSO; 1 µM (% DMSO) (expanded OPCs; alamarBlue viability, NCC library compound at 1 µM, sheet ""All Tox data""): 78.4 % DMSO; 10 µM (% DMSO) (expanded OPCs; alamarBlue viability, NCC library compound at 10 µM, sheet ""All Tox data""): 50.8 % DMSO"
Cl.NC1CCN(c2cccc(Cl)n2)CC1 [SR57227A],,,,,,"OL differentiation, 2 uM (% Quet) ([1]; 2 uM test compound, relative to quetiapine): 13.8 % Quet; OL differentiation, 10 uM (% Quet) ([1]; 10 uM test compound, relative to quetiapine): 30.8 % Quet; 0.1 µM (% DMSO) (expanded OPCs; alamarBlue viability of expanded OPCs, compound at 0.1 µM, sheet All Tox data): 85.7 % DMSO; 1 µM (% DMSO) (expanded OPCs; alamarBlue viability of expanded OPCs, compound at 1 µM, sheet All Tox data): 88.3 % DMSO; 10 µM (% DMSO) (expanded OPCs; alamarBlue viability of expanded OPCs, compound at 10 µM, sheet All Tox data): 77.5 % DMSO"
CN(C)[C@@H]1C(O)=C(C(N)=O)C(=O)[C@@]2(O)C(O)=C3C(=O)c4c(O)cccc4C[C@H]3C[C@@H]12 [Sancycline],,,,,,"activation at 2 µM [1, 13]: 1.8%; activation at 10 µM [1, 14]: 27.4%; 0.1 µM (% DMSO) (expanded OPCs; [2]): 88.7 % DMSO; 1 µM (% DMSO) (expanded OPCs; [3]): 89.0 % DMSO; 10 µM (% DMSO) (expanded OPCs; [4]): 83.0 % DMSO"
